Measured values from PubChem BioAssay AID1996.
Converted amounts (≈) assume the structure as drawn.

details: buffer; pH 7.4; 200.0 µM

Compound	solubility kinetic
O=[N+]([O-])c1ccccc1OCc1nc(-c2cccs2)no1	0.9 µg/mL (≈ 2.97 µM)
COc1cc2c(cc1OC)CN(C(=O)c1ccc(Br)o1)CC2	> 54.9 µg/mL
O=C1CCC(C(=O)N2CCCC2)CN1CCc1cccc(F)c1 (stereo not given)	> 47.8 µg/mL
CCCSC1C(C)=C(C)C(=O)N1Cc1ccccc1 (stereo not given)	35.5 µg/mL (≈ 129 µM)
Brc1ccc(-c2noc(-c3ccccn3)n2)o1	10.8 µg/mL (≈ 37 µM)
O=C(CN1CCCc2ccccc21)NCCc1ccc(Cl)cc1	19.3 µg/mL (≈ 58.7 µM)
O=C(NCc1ccccc1)c1ccc[nH+]c1.[Cl-]	> 37.3 µg/mL
COC(=O)c1cc(C(=O)CC(C)C)c[nH]1	> 31.4 µg/mL
Cc1cc(C)c(OCC(=O)N2CC=C(c3ccccc3)CC2)c(C)c1	13 µg/mL (≈ 38.8 µM)
Nc1cccc(NP(=O)(c2ccccc2)c2ccccc2)c1	1.7 µg/mL (≈ 5.51 µM)
COc1ccc(-c2cc(C(=O)N(C)Cc3nc4ccccc4c(=O)[nH]3)c3ccccc3n2)cc1OC	13.2 µg/mL (≈ 27.5 µM)
Cc1ccc(CNc2nc(N)c([N+](=O)[O-])c(NCCO)n2)cc1	43.4 µg/mL (≈ 136 µM)
Cc1cc(N)ccc1-c1cc2ccccc2oc1=O	25.8 µg/mL (≈ 103 µM)
CC(C)NC(=S)Nc1ccc2[nH]c(=O)[nH]c2c1	> 37.5 µg/mL
CCOC(=O)C1Sc2ccccc2NC1=O (stereo not given)	> 35.6 µg/mL
COc1ccc(C=O)c2[nH]c3c(Cl)ncnc3c12	3.4 µg/mL (≈ 13 µM)
O=C(NCC(c1ccco1)N1CCN(c2ccccc2F)CC1)c1cccs1 (stereo not given)	54.3 µg/mL (≈ 136 µM)
COCN(C#N)c1nc(N(C)C)nc(N(C)C)n1	> 37.7 µg/mL
O=C(Cc1csc(-c2ccccc2)n1)NCc1ccco1	39.1 µg/mL (≈ 131 µM)
Cc1nc2c(=O)n(-c3ccc(F)cc3F)nc(C)c2s1	> 44 µg/mL
CSc1ncccc1C(=O)OCc1cccc([N+](=O)[O-])c1	< 0.3 µg/mL
S=C(Nc1ccccc1)N(Cc1ccccc1)Cc1ccncc1	39.2 µg/mL (≈ 118 µM)
CC(C)CC(=O)N1CCN(Cc2ccc(C(F)(F)F)cc2)CC1	47.2 µg/mL (≈ 144 µM)
CCOc1cccc2cc(C(=O)N3CC(C)OC(C)C3)c(=O)oc12 (stereo not given)	> 49.7 µg/mL
Cc1nc(N2CCOCC2)nc(N2CCCCC2C)c1[N+](=O)[O-] (stereo not given)	12.2 µg/mL (≈ 38 µM)
CC1CCN(Cc2cc(=O)oc3cc4c(cc23)CCCC4)CC1	< 0.7 µg/mL
CC(C)(C)NC(=O)NC(=O)CN1CCN(c2ccccc2O)CC1	44.8 µg/mL (≈ 134 µM)

Compound	solubility kinetic
Cc1sc(N)nc1-c1ccc(Oc2ccccc2)cc1	2.1 µg/mL (≈ 7.44 µM)
CCn1c(SCc2cccc(F)c2)nc2c(c1=O)SCC2	11.2 µg/mL (≈ 34.7 µM)
Cc1cccc(OCCCN2CCOCC2)c1	28 µg/mL (≈ 119 µM)
CCc1ccc(CN2CCSCC2)cc1	8.5 µg/mL (≈ 38.4 µM)
Cc1[nH]c2c(C)cccc2c(=O)c1CN1CCCCCC1	39.5 µg/mL (≈ 139 µM)
Cl.Clc1cccc(OCCN2CCCC2)c1	37.2 µg/mL
CS(=O)(=O)N1Cc2ccccc2CC1C(=O)OCC(=O)NCc1ccccc1 (stereo not given)	> 60.4 µg/mL
CC(=O)N1CCC(C(=O)Nc2ccc3c(c2)CCC3)CC1	> 43 µg/mL
CC(C(=O)N1CCCC1)N(C)CC(=O)Nc1cccc(F)c1 (stereo not given)	37 µg/mL (≈ 120 µM)
O=C(O)CNC(=O)/C(=C\c1ccco1)NC(=O)c1ccco1	> 45.6 µg/mL
Cc1ccc2c(CN3CCOCC3)cc(=O)oc2c1C	> 41 µg/mL
O=C(O)CCCNC(=O)Cc1ccccc1	> 33.2 µg/mL
O=[N+]([O-])c1ccccc1/C=C/CN1CCC(O)CC1	29.2 µg/mL (≈ 111 µM)
Cc1cc2nc3n(c2cc1C)CCCN3	> 30.2 µg/mL
CC(=O)c1ccc(S(=O)(=O)N2CCN(CCOc3ccccc3)CC2)cc1	53.6 µg/mL (≈ 138 µM)
CCN(C/C=C/c1ccccc1OC)Cc1ccccc1	18.3 µg/mL (≈ 65 µM)
COc1ccc(NS(=O)(=O)c2cccc(NC(=O)COc3ccccc3[N+](=O)[O-])c2)cc1	2.9 µg/mL (≈ 6.34 µM)
CCCOc1ncnc2c1[nH]c1ccc(OC)cc12	0.5 µg/mL (≈ 1.94 µM)
Cc1cccc(Cn2c(C)nc3ccc([N+](=O)[O-])cc3c2=O)c1	3.6 µg/mL (≈ 11.6 µM)
N#CC(C(N)=O)=C1CCCCC1	> 24.6 µg/mL
CCCc1cc(=O)[nH]c(SCc2nc3ccccc3o2)n1	> 45.2 µg/mL
Cc1nc2ccccc2n1Cc1ccccc1	32.9 µg/mL (≈ 148 µM)
COc1cc(/C=C/C(=O)OCC(=O)c2ccc[nH]2)cc(OC)c1OC	9.4 µg/mL (≈ 27.2 µM)
O=[N+]([O-])c1ccc(NCCCN2CCOCC2)nc1	> 39.9 µg/mL
CCCn1c(SCC(=O)N(C)C2CCS(=O)(=O)C2)nc2sc3c(c2c1=O)CCC3 (stereo not given)	> 68.3 µg/mL
O/N=C/Cc1[nH]c2ccccc2c1-c1ccccc1	34.8 µg/mL (≈ 139 µM)
O=C(CCCl)N1CCCC2(CCCCC2)C1	30.1 µg/mL (≈ 123 µM)

Compound	solubility kinetic
N#Cc1c(F)cccc1NCc1cccs1	1.3 µg/mL (≈ 5.6 µM)
O=C(COC(=O)C1CCC1)NCCc1ccc(Cl)cc1Cl	> 49.5 µg/mL
O=C1N/C(=C/c2cccs2)C(=O)N1Cc1ccc(F)cc1	< 0.3 µg/mL
O=C(COC(=O)C1CCCC1)Nc1cccc(Cl)c1Cl	5.9 µg/mL (≈ 18.7 µM)
Cc1csc2c(N(C)CCO)ncnc12	> 33.5 µg/mL
C=CCn1c2[n+](c3ccccc3c1=O)CCCCC2.[I-]	41.6 µg/mL
CC(=O)Nc1c(NC(C)(C)C)c2ccccc2oc1=O	> 41.1 µg/mL
CC(=O)c1ccccc1OC(=O)COc1ccc([N+](=O)[O-])cc1	> 47.3 µg/mL
O=[N+]([O-])c1ccc(COc2ncnc3ccccc23)cc1	27.7 µg/mL (≈ 98.5 µM)
N/C(=N\OC(=O)c1cccc(C(F)(F)F)c1)c1cnccn1	2.4 µg/mL (≈ 7.74 µM)
Cn1c(=O)c([N+](=O)[O-])c(NCC2CCCO2)c2ccccc21 (stereo not given)	> 45.5 µg/mL
COc1cc(N2C(=O)CC3(CCCC3)CC2=O)cc(OC)c1OC	47.2 µg/mL (≈ 142 µM)
Cc1cccc(NC(=S)NCCc2ccccc2)c1C	4.1 µg/mL (≈ 14.4 µM)
COc1ccsc1C(=O)NCCN1CCOCC1	39.7 µg/mL (≈ 147 µM)
Cc1ccccc1NC(=O)CCC(=O)OCC(=O)c1cccc([N+](=O)[O-])c1	> 55.6 µg/mL
O=C(CSc1nnc(-c2ccccc2F)o1)NC1CC1	> 44 µg/mL
CCOC(=O)CSc1nc2ccccc2c(=O)n1CC(C)C	4.2 µg/mL (≈ 13.1 µM)
O=[N+]([O-])c1ccc(CSc2ncnc3ccccc23)cc1	5.6 µg/mL (≈ 18.8 µM)
CCNC(=O)COC(=O)/C=C/c1cccc(F)c1	> 37.7 µg/mL
Nc1nc2c(ccc3ccccc32)s1	27.4 µg/mL (≈ 137 µM)
Cc1sc2ncnc(NCCCN3CCCC3=O)c2c1C	> 45.7 µg/mL
Cc1[nH]c(=O)c(C#N)c(C)c1CCC(=O)NCc1ccc(Cl)cc1	> 51.6 µg/mL
CCC(=O)Nc1nc(-c2cc([N+](=O)[O-])cs2)cs1	1 µg/mL (≈ 3.53 µM)
O=C(CN1C(=O)c2ccccc2S1(=O)=O)NCCc1ccc(F)cc1	> 54.4 µg/mL
Brc1cnc2nc(SC/C=C/c3ccccc3)[nH]c2c1	0.3 µg/mL (≈ 0.866 µM)

Now from value to compound:

solubility kinetic	Compound
> 50.6 µg/mL	CNC(=O)c1ccccc1Sc1cccc2cccc(C(=O)O)c12
> 36.2 µg/mL	O=C1c2ccccc2C(=O)N1CCn1ccnc1
> 47.1 µg/mL	Cc1nn(CC(=O)NCc2cccc(F)c2)c(=O)c2cccn12
> 44 µg/mL	CN(C)C(=O)c1ccc(-n2cnc3ccccc3c2=O)cc1
> 50 µg/mL	Cl.O=C(NCCN1CCCC1)c1ccc(Br)cc1
0.4 µg/mL (≈ 1.38 µM)	O=C(Nc1ccc(Cl)cc1)Nc1ccc2c(c1)OCO2
< 0.3 µg/mL	COc1ccc(C)cc1NC(=O)NC1CCCc2ccccc21 (stereo not given)
2.1 µg/mL (≈ 5.49 µM)	COc1ccccc1N1CC(C)(C)C(=O)N(C(=O)c2ccc(C)cc2)C1=S
10.9 µg/mL	COc1cccc2[nH]c(C(=O)NCc3ccccc3)cc12.Cl
13.5 µg/mL (≈ 49 µM)	COc1ccc(C(=O)Cn2cc([N+](=O)[O-])nc2C)cc1
53.9 µg/mL (≈ 142 µM)	Cc1ccc(N(CN2C(=O)C3C4CCC(C4)C3C2=O)C(=O)c2ccco2)cc1 (stereo not given)
> 51.5 µg/mL	CN(CC(O)Cn1cnc2c1c(=O)n(C)c(=O)n2C)c1ccccc1 (stereo not given)
< 0.4 µg/mL	Cc1cc(NC(=O)c2ccc(COc3ccccc3Cl)o2)no1
> 47.5 µg/mL	Cc1ccc(C2=NN(CC(=O)NCCN(C)C)C(=O)CC2)cc1
30.8 µg/mL	COc1ccc(C)c2sc(N(CCN(C)C)C(=O)c3ccc4ccccc4c3)nc12.Cl
> 42.5 µg/mL	Cc1ccsc1C(=O)N1CC=C(c2ccccc2)CC1
25.3 µg/mL (≈ 97.6 µM)	CCOc1c(Nc2ccc(C(C)C)cc2)c(=O)c1=O
> 44.6 µg/mL	CCc1noc(C)c1C(=O)NCCc1c[nH]c2ccccc12
1.2 µg/mL (≈ 3.47 µM)	COc1ccc(NC(=O)CSc2ncnc3sc(C)cc23)cc1
4.5 µg/mL (≈ 15.1 µM)	Cc1ccc(NC(=O)CCCc2ccccc2)c([N+](=O)[O-])c1
14.8 µg/mL	COc1ccc(Nc2ncnc3sc(C)cc23)cc1.Cl

solubility kinetic	Compound
14.9 µg/mL (≈ 45.2 µM)	COc1ccc(C2c3ccsc3CCN2C(=O)C(C)(C)C)cc1 (stereo not given)
> 41.2 µg/mL	CCN(/C=N/S(=O)(=O)c1ccc(Cl)cc1)CC
6.3 µg/mL (≈ 20 µM)	Cc1ccc(OCCn2cnc3c2c(=O)n(C)c(=O)n3C)cc1
2.6 µg/mL (≈ 8.06 µM)	Cc1ccc(C(=O)NCC(=O)Nc2ccc3c(c2)CCC3)cc1C
> 52.9 µg/mL	Cc1nc2c(ncn2-c2ccccc2)c(=O)n1NC(=O)CN1CCCC1
10.7 µg/mL (≈ 34.6 µM)	N#C/C(=C/c1cccc([N+](=O)[O-])c1)C(=O)Nc1ccccc1O
31.7 µg/mL (≈ 114 µM)	CC(=O)Nc1ccc(C2NC(=O)CCC2[N+](=O)[O-])cc1 (stereo not given)
> 38.9 µg/mL	CCC(=O)Nc1ccc(C=C(C(C)=O)C(C)=O)cc1
> 50 µg/mL	COCCNC(=O)C(OC(=O)C1=Cc2ccccc2OC1)C(C)C (stereo not given)
> 45.1 µg/mL	NC(=O)CSc1nnc(-c2ccco2)n1-c1ccccc1
> 42.3 µg/mL	COn1c(=O)c(-c2ccc(C)cc2)[n+]([O-])c2ccccc21
6.8 µg/mL (≈ 20.8 µM)	Cc1ccc(OCCNC(=O)CNC(=O)c2ccc(C)cc2)cc1
< 0.4 µg/mL	Cc1c(Br)ccc(NC(=O)COc2ccccc2C(N)=O)c1C
6.2 µg/mL (≈ 14.8 µM)	Cc1nc2ccc(NC(=O)c3cccc(S(=O)(=O)N4CCOCC4)c3)cc2s1
> 40.7 µg/mL	CN(C)c1ccc(/C=N/NC(=O)c2ccn(C)n2)cc1
0.5 µg/mL (≈ 1.48 µM)	CCN(CC)c1ccc(NC(=O)c2cc3c(OC)cccc3[nH]2)cc1
3.9 µg/mL (≈ 10.2 µM)	Cc1onc(-c2c(Cl)cccc2Cl)c1C(=O)Nc1ccc(Cl)cn1
> 62 µg/mL	COc1ccc(OC)c(N2C(=O)CC(NNC(=O)c3ccc4c(c3)OCO4)C2=O)c1 (stereo not given)
> 51.4 µg/mL	COc1ccccc1NC(=O)CSc1nnc(-c2ccccn2)o1
1.2 µg/mL (≈ 4.28 µM)	O=C(Nc1ccccc1)c1ccc(NC(=O)C2CC2)cc1
